In brackets after ≈: the same amount, converted by molar mass.
Experiments:
[1] = Half life of compound in HEPES buffer measured at pH 7.5 and 30 DegC by HPLC analysis; type: physicochemical
[2] = Drug degradation in HEPES buffer assessed as decomposition measured at pH 7.5 and 30 DegC after 21 hrs by HPLC analysis; type: physicochemical; details: read-out: Drug degradation
Escherichia coli = experiment: Antimicrobial activity against Escherichia coli K-12 measured after 19 hrs; type: functional; details: K-12, 19 h
[3] = Stability of compound in HEPES buffer assessed as hydrolysis measured at pH 7.5 and 30 DegC after 9 hrs by HPLC analysis; type: physicochemical; details: pH 7.5, 9 h

Structure (SMILES)	half-life [1] [h]	degraded at 21 h [2] [%]	MIC (Escherichia coli) [µM]	Stability [3]
CNCC(=O)OCOC(=O)N1CCN(c2cc3c(cc2F)c(=O)c(C(=O)O)cn3C2CC2)CC1	0.35	–	–	–
CNCC(=O)OC(C)OC(=O)N1CCN(c2cc3c(cc2F)c(=O)c(C(=O)O)cn3C2CC2)CC1 (stereo not given)	1.6	–	–	–
CN[C@H](C(=O)OC(C)OC(=O)N1CCN(c2cc3c(cc2F)c(=O)c(C(=O)O)cn3C2CC2)CC1)C(C)C (stereo not given in full)	2.4	–	–	–
O=C(O)c1cn(C2CC2)c2cc(N3CCNCC3)c(F)cc2c1=O [CIPROFLOXACIN]	–	–	0.1 (≈ 0.0331 µg/mL)	–

Continued, values first:

half-life [1] [h]	degraded at 21 h [2] [%]	MIC (Escherichia coli) [µM]	Stability [3]	Structure (SMILES)
> 60	20	–	–	CC(OC(=O)[C@H](C)NC(=O)c1ccccc1)OC(=O)N1CCN(c2cc3c(cc2F)c(=O)c(C(=O)O)cn3C2CC2)CC1 (stereo not given in full)
> 130	10	–	–	CC(OC(=O)[C@@H](NC(=O)c1ccccc1)C(C)C)OC(=O)N1CCN(c2cc3c(cc2F)c(=O)c(C(=O)O)cn3C2CC2)CC1 (stereo not given in full)
8.1	–	1 (≈ 1.19 µg/mL)	Unstable	CC(OC(=O)[C@H](C)NC(=O)c1cc(O)c(O)c(C(=O)N[C@H]2COC(=O)[C@@H](NC(=O)c3cccc(O)c3O)COC(=O)[C@@H](NC(=O)c3cccc(O)c3O)COC2=O)c1)OC(=O)N1CCN(c2cc3c(cc2F)c(=O)c(C(=O)O)cn3C2CC2)CC1 (stereo not given in full)
9.9	–	1 (≈ 1.21 µg/mL)	Unstable	CC(OC(=O)[C@@H](NC(=O)c1cc(O)c(O)c(C(=O)N[C@H]2COC(=O)[C@@H](NC(=O)c3cccc(O)c3O)COC(=O)[C@@H](NC(=O)c3cccc(O)c3O)COC2=O)c1)C(C)C)OC(=O)N1CCN(c2cc3c(cc2F)c(=O)c(C(=O)O)cn3C2CC2)CC1 (stereo not given in full)
8.7	–	–	–	O=C(NCCCCCC(=O)N1CCN(c2cc3c(cc2F)c(=O)c(C(=O)O)cn3C2CC2)CC1)c1cc(O)c(O)c(C(=O)N[C@H]2COC(=O)[C@@H](NC(=O)c3cccc(O)c3O)COC(=O)[C@@H](NC(=O)c3cccc(O)c3O)COC2=O)c1

From ChEMBL document CHEMBL3621188, “Evaluation of (acyloxy)alkyl ester linkers for antibiotic release from siderophore-antibiotic conjugates” (Bioorg Med Chem Lett, 2015)
